The values below come from ChEMBL document CHEMBL1131556, “The discovery of orally available thrombin inhibitors: studies towards the optimisation of CGH1668” (Bioorg Med Chem Lett, 1998).

Assay [1] can be described thus: Activated partial thromboplastin time (APTT) was determined by the influence on doubling of a human clotting time assay. In kind it is functional.
For another assay, the target named is Prothrombin (Homo sapiens, UniProt P00734). Briefly: In vitro binding affinity for human thrombin.

By Ki is commonly meant a measure of affinity in units of concentration, obtained from inhibition or displacement. Low readings indicate a stronger hold on the target, high ones a looser hold on the target. `CCCCNC[C@H](Cc1ccccc1)Nc1ccncc1S(=O)(=O)N[C@@H](Cc1ccc(N)cc1)C(=O)N1CCC(CCF)CC1`: the Activity in assay [1] was determined as 5.1 µM. For the same compound, the affinity on Prothrombin corresponds to a Ki of 43 nM.

With `CCNC[C@H](Cc1ccccc1)Nc1ccncc1S(=O)(=O)N[C@@H](Cc1ccc(N)cc1)C(=O)N1CCC(CCF)CC1`, in assay [1], the Activity came to 3.2 µM. This compound also displayed a Ki at Prothrombin of 99 nM.

In assay [1], `CNC[C@H](CC1CCCCC1)Nc1ccncc1S(=O)(=O)N[C@@H](Cc1ccc(N)cc1)C(=O)N1CCC(CCF)CC1` yielded an Activity of 2.8 µM. At Prothrombin, this compound displayed a Ki of 33 nM.

In turn, `CCCNC[C@H](Cc1ccccc1)Nc1ccncc1S(=O)(=O)N[C@@H](Cc1ccc(N)cc1)C(=O)N1CCC(CCF)CC1` came in with an Activity in assay [1] of 3.3 µM. For the same compound, the Ki on Prothrombin was determined as 47 nM.

For the compound `Nc1ccc(C[C@H](NS(=O)(=O)c2cnccc2N[C@H](COCCO)Cc2ccccc2)C(=O)N2CCC(CCF)CC2)cc1`, in assay [1], the Activity turned out to be 2.5 µM. For the same compound, affinity at Prothrombin was put at a Ki of 49 nM.

On to `O=C([C@H](Cc1ccccc1)NS(=O)(=O)c1cnccc1N[C@H](CO)Cc1ccccc1)N1CCC(CCF)CC1`, for which the Activity in assay [1] was 11.5 µM. On Prothrombin, this compound registered a Ki of 100 nM.

In assay [1], `CN(C)C[C@H](Cc1ccccc1)Nc1ccncc1S(=O)(=O)N[C@@H](Cc1ccc(N)cc1)C(=O)N1CCC(CCF)CC1` displayed an Activity of 3.4 µM. At Prothrombin, this compound registered a Ki of 24 nM.

For `CC(=O)N1CCN(C[C@H](Cc2ccccc2)Nc2ccncc2S(=O)(=O)N[C@@H](Cc2ccc(N)cc2)C(=O)N2CCC(CCF)CC2)CC1`, in assay [1], the Activity was 2.4 µM. At Prothrombin, this compound came in with a Ki of 24 nM.

On to `CCN(CC)C[C@H](Cc1ccccc1)Nc1ccncc1S(=O)(=O)N[C@@H](Cc1ccc(N)cc1)C(=O)N1CCC(CCF)CC1`, for which the Activity in assay [1] was 3.56 µM. The affinity at Prothrombin corresponds to a Ki of 45 nM.

Consider `CNC[C@H](Cc1ccccc1)Nc1ccncc1S(=O)(=O)N[C@@H](Cc1ccc(N)cc1)C(=O)N1CCC(CCF)CC1`, for which, in assay [1], the Activity worked out at 2.4 µM. Affinity on Prothrombin was put at a Ki of 35 nM.

In assay [1], `COCCN(CCOC)C[C@H](Cc1ccccc1)Nc1ccncc1S(=O)(=O)N[C@@H](Cc1ccc(N)cc1)C(=O)N1CCC(CCF)CC1` had an Activity of 3.7 µM. The affinity on Prothrombin, expressed as Ki, was 19 nM.

Consider `O=C([C@H](Cc1ccc(F)cc1)NS(=O)(=O)c1cnccc1N[C@H](CO)Cc1ccccc1)N1CCC(CCF)CC1`, for which, in assay [1], the Activity is 11.7 µM. For the same compound, affinity on Prothrombin was put at a Ki of 65 nM.

`COc1ccc(C[C@@H](CO)Nc2ccncc2S(=O)(=O)N[C@@H](Cc2ccc(N)cc2)C(=O)N2CCC(CCF)CC2)cc1OC` displayed an Activity in assay [1] of 2.5 µM. The same compound showed an inhibitory constant (Ki) on Prothrombin of 49 nM.

Regarding `C[C@H](Cc1ccccc1)Nc1ccncc1S(=O)(=O)N[C@@H](Cc1ccc(N)cc1)C(=O)N1CCC(CCF)CC1`, the Activity in assay [1] was 7.1 µM. Moreover, the Ki at Prothrombin came to 18 nM.

In assay [1], `Nc1ccc(C[C@H](NS(=O)(=O)c2cnccc2N[C@@H](Cc2ccccc2)CN2CCC(O)CC2)C(=O)N2CCC(CCF)CC2)cc1` showed an Activity of 1.73 µM. At Prothrombin, this compound showed a Ki of 19 nM.

For the compound `Nc1ccc(C[C@H](NS(=O)(=O)c2cnccc2N[C@H](CO)CC2CCCCC2)C(=O)N2CCC(CCF)CC2)cc1`, the Activity in assay [1] was determined as 2.6 µM. This compound also registered a Ki on Prothrombin of 18 nM.

As for `COc1ccc(C[C@@H](C)Nc2ccncc2S(=O)(=O)N[C@@H](Cc2ccc(N)cc2)C(=O)N2CCC(CCF)CC2)cc1`, the Activity in assay [1] came out at 9 µM. Also, on Prothrombin, the Ki was determined as 15 nM.

Compound `CCC1CCN(C(=O)[C@H](Cc2ccc(N)cc2)NS(=O)(=O)c2cnccc2N[C@H](CO)Cc2ccccc2)CC1` had an Activity in assay [1] of 5.5 µM. This compound also displayed a Ki on Prothrombin of 110 nM.

In turn, `Nc1ccc(C[C@H](NS(=O)(=O)c2cnccc2N[C@H](CNCCO)Cc2ccccc2)C(=O)N2CCC(CCF)CC2)cc1` registered an Activity in assay [1] of 2 µM. The same compound had a Ki on Prothrombin of 72 nM.

Take `Nc1ccc(C[C@H](NS(=O)(=O)c2cnccc2N[C@@H](Cc2ccccc2)CN2CCNC(=O)C2)C(=O)N2CCC(CCF)CC2)cc1`: the Activity in assay [1] worked out at 2.43 µM. At Prothrombin, this compound had a Ki of 90 nM.

`O=C([C@H](Cc1ccc(O)cc1)NS(=O)(=O)c1cnccc1N[C@H](CO)Cc1ccccc1)N1CCC(CCF)CC1`: in assay [1], the Activity was 1.91 µM. The compound also had a Ki at Prothrombin of 41 nM.

Compound `Nc1ccc(C[C@H](NS(=O)(=O)c2cnccc2N[C@@H](Cc2ccccc2)CN2CCCCC2)C(=O)N2CCC(CCF)CC2)cc1` yielded an Activity in assay [1] of 6.1 µM. Besides, the affinity at Prothrombin corresponds to a Ki of 25 nM.

In turn, `Nc1ccc(C[C@H](NS(=O)(=O)c2cnccc2N[C@H](CO)Cc2ccccc2)C(=O)N2CCC(CCCl)CC2)cc1` gave an Activity in assay [1] of 4.4 µM. The compound also displayed a Ki on Prothrombin of 27 nM.

`Nc1ccc(C[C@H](NS(=O)(=O)c2cnccc2N[C@@H](Cc2ccccc2)CN2CCOCC2)C(=O)N2CCC(CCF)CC2)cc1` came in with an Activity in assay [1] of 2.9 µM. On Prothrombin, this compound had a Ki of 22 nM.

Consider `Nc1ccc(C[C@H](NS(=O)(=O)c2cnccc2N[C@H](CO)Cc2ccccc2)C(=O)N2CCC(CCO)CC2)cc1`, for which, in assay [1], the Activity stood at 7.4 µM. On Prothrombin, this compound gave a Ki of 634 nM.

For `COc1ccc(C[C@H](NS(=O)(=O)c2cnccc2N[C@H](CO)Cc2ccccc2)C(=O)N2CCC(CCF)CC2)cc1`, the Activity in assay [1] was found to be 8.1 µM. The compound further registered an inhibitory constant (Ki) at Prothrombin of 36 nM.

`CNc1ccc(C[C@H](NS(=O)(=O)c2cnccc2N[C@H](CO)Cc2ccccc2)C(=O)N2CCC(CCF)CC2)cc1`: in assay [1], the Activity came out at 4.1 µM. In addition, at Prothrombin, the Ki was 12 nM.

On to `COc1ccc(C[C@@H](CO)Nc2ccncc2S(=O)(=O)N[C@@H](Cc2ccc(N)cc2)C(=O)N2CCC(CCF)CC2)cc1`, for which the Activity in assay [1] came out at 2.9 µM. Also, on Prothrombin, affinity was put at a Ki of 19 nM.

`Nc1ccc(C[C@H](NS(=O)(=O)c2cnccc2N[C@@H](Cc2ccccc2)CN2CCCC2)C(=O)N2CCC(CCF)CC2)cc1`: the Activity in assay [1] is 3.4 µM. For the same compound, the Ki at Prothrombin came to 48 nM.

In turn, `Nc1ccc(C[C@H](NS(=O)(=O)c2cnccc2N[C@H](CO)Cc2ccccc2)C(=O)N2CCC(CCF)CC2)cc1` showed an Activity in assay [1] of 2.5 µM. Besides, at Prothrombin, the Ki turned out to be 39 nM.
